According to PMC9287337 (Scientific Reports, 2022):
Where two headings read alike, the source gives them in different places.

Columns and labels:
[1] = Cell viability assay in presence or absence of Dorsomorphin; format: cell-based, mouse; details: mouse, serum-starved C2C12 cells
Procedure: To resolve whether the SY-LB-35 or SY-LB-57 compound requires type I BMP receptor activity for the induction of cell viability in C2C12 cells, cell viability assays were carried out in the presence or absence of 10 µM DM.
C2C12 cells (100 µL) were seeded in a 96-well plate at 5 × 10^5 cells/mL and incubated overnight in complete growth media to achieve 80% confluency followed by serum-starvation for 16–18 h. […] For BMP receptor inhibition, cell viability assays were carried out in presence or absence of Dorsomorphin (DM; 10 µM; Sigma Aldrich, St. Louis, MO, USA), a non-selective inhibitor of type I BMP receptor activity.
Next, reagents from the RealTime-Glo™ MT Cell Viability Assay Kit (Promega, Madison, WI, USA) were diluted in SS medium and used according to manufacturer’s protocol. Cellular luminescence was measured using the FilterMax F5 Multi-mode Microplate Reader (Molecular Devices, San Jose, CA, USA). Data from three independent experiments with individual experiments carried out in triplicate was determined and reported as a percentage of control.

[2] = test system: p-Akt cytoplasmic localization; assay: Immunofluorescent labeling of p-Akt; format: cell-based, mouse; details: 1 µM, 15 min
Procedure: (§1) To ascertain whether these novel indolyl-benzimidazole compounds can also activate non-canonical BMP-related pathways, stimulation of the PI3K/Akt pathway was assessed by first monitoring changes in the level of p-Akt in response to SY-LB-35 and SY-LB-57.

[3] = test system: C2C12 cells; assay: Cell cycle analysis by flow cytometry; format: cell-based, mouse; details: 24 h
Procedure: C2C12 cells were starved in SS medium followed by 24-h treatment with 0.01–10 µM SY-LB-35 or SY-LB-57. The distribution of cell cycle phases was analyzed with respect to the control, untreated cells (Fig. 9). […] Furthermore, the percentage of cells in G0/G1 phase decreased with respect to control following the treatment of C2C12 cells with the indolyl-benzimidazole compounds (****p < 0.0005; ***p < 0.001; **p < 0.01; Fig. 9A). Thus, SY-LB-35 and SY-LB-57 at all tested concentrations shifted the cell cycle in C2C12 cells toward proliferation causing a significant decline in the population of cells in G0/G1 phase and a sharp increase in the percentage of cells present in proliferative phases of the cell cycle (S and G2/M).
Equal numbers (~ 10^6) of cells, from each treatment counted as above were collected, fixed with 4% paraformaldehyde (PFA) for 10 min at RT and pelleted at 300 g for 5 min. Cell pellets were washed with Stain buffer (BD Pharmingen, San Diego, CA, USA) followed by permeabilization with 90% ice-cold methanol for 15 min at 4 °C. The cells were again washed with Stain buffer and the pelleted cells were stained with BD Pharmingen Propidium Iodide/RNase Staining Buffer (0.5 mL/10^6 cells) for 30 min at RT while protected from light. Following two more washes, the pellet was resuspended in 225 µL Stain buffer and the cells were divided into 3 microcentrifuge tubes (75 µL each) for analysis with the Amnis® Flowsight Imaging Flow Cytometer (Austin, TX, USA). IDEAS® software (version 6.2, Seattle, WA, USA) was used to analyse the data files.

[4] = test system: p-JNK; assay: Western blot of p-JNK; format: cell-based, mouse; details: 0.01–10 µM, 15 min
Procedure: Whole cell lysates were prepared from the treated cultures for Western blot analysis.
(§2) C2C12 cells (3 mL) were seeded into 35 mm dishes at 7.5 × 10^4 cells/mL in complete growth medium, incubated to reach 80% confluence and serum-starved for 16–18 h. […] Thereafter, the cultures were washed with ice-cold 1X TBS for 2 min. Lysis Buffer (Cell Signaling Technology, Danvers, MA, USA) supplemented with 1 mM PMSF (phenylmethylsulphonyl fluoride) was added to the cultures and whole cell lysates were prepared.
Laemmli sample buffer (4X) was added to the whole cell lysates (20 µg) to a final concentration of 1X and heated at 100 °C for 5 min. The samples were immediately cooled on ice for 5 min and centrifuged at 9500 rpm for 2 min at RT. The samples and the Precision Plus Protein Standard (5 µL; Bio-Rad, Hercules, CA, USA) were loaded on 12% SDS polyacrylamide gels. […] Finally, the blots were developed using SuperSignal ™ West Femto HRP Substrate solutions (Thermo Scientific, Rockford, IL, USA) and analysed using the Omega Lum™ G Imaging System (San Francisco, CA, USA). Quantification of chemiluminescent signals was carried out using ImageJ (Image Processing and Analysis in Java 1.8.0_112).

[5] = test system: p-Akt (Akt phosphorylation); assay: Western blot of p-Akt normalized to total Akt; format: cell-based; details: Mus musculus, 0.25 h, 15 min, read-out: p-Akt level, percent of control
Procedure: as §1, §2
Laemmli sample buffer (4X) was added to the whole cell lysates (20 µg) to a final concentration of 1X and heated at 100 °C for 5 min. The samples were immediately cooled on ice for 5 min and centrifuged at 9500 rpm for 2 min at RT. The samples and the Precision Plus Protein Standard (5 µL; Bio-Rad, Hercules, CA, USA) were loaded on 12% SDS polyacrylamide gels. Protein was separated using the Bio-Rad Mini Protean II Gel Electrophoresis System at 135 V. Meanwhile, 0.2 µm nitrocellulose membranes were pre-incubated in cold 1X Transfer Buffer (10 mM Tris/2.5 mM glycine/20% methanol) for at least 30 min. Next, the separated proteins were transferred at 100 V onto the pre-equilibrated nitrocellulose membranes for 1 h in Transfer Buffer, followed by blocking in 5% BSA/0.1% Tween 20/1X TBS for 30 min. The membranes were incubated overnight at 4 °C with the desired primary rabbit monoclonal antibody (p-Smad1/5(S463/465)/9(S465/467), Smad1 (D5907) XP®, p-Akt (Ser473) (D9E) XP®, or Akt (pan) (C67E7), p-SAPK/JNK (Thr183/Tyr185), SAPK/JNK, β-actin (Cell Signaling Technologies, Danvers, MA, USA)) or rabbit polyclonal antibody (phospho-PI3 Kinase p85 (Tyr458)/p55 (Tyr199) antibody (Cell Signaling Technologies, Danvers, MA, USA), p-p38 MAPK, p38 MAPK, p-ERK1, ERK1/2) (Abclonal, Woburn, MA, USA)) in Antibody Dilution Buffer (1% BSA/0.1% Tween 20/1X TBS) and then washed with 1X TBST (0.1% Tween 20/1X TBS) three times for 15 min. HRP-conjugated Goat Anti-Rabbit IgG secondary antibody (Santa Cruz Biotechnology, Inc., Dallas, TX, USA) in Antibody Dilution Buffer was added to the membranes for 1 h at RT followed by three 15-min washes with 1X TBST. Finally, the blots were developed using SuperSignal ™ West Femto HRP Substrate solutions (Thermo Scientific, Rockford, IL, USA) and analysed using the Omega Lum™ G Imaging System (San Francisco, CA, USA). Quantification of chemiluminescent signals was carried out using ImageJ (Image Processing and Analysis in Java 1.8.0_112).

[6] = Dorsomorphin 10 µM, read-out: Cell viability, DM(+)
[7] = without Dorsomorphin, read-out: Cell viability, DM(−)

Compound Oc1ccc2[nH]c(-c3nc4ccccc4[nH]3)cc2c1 [SY-LB-35] has a viability at 24 h, 0.01 µM [1, 6] of 98%, a viability at 24 h, 0.01 µM [1, 7] of 266% and a viability at 24 h, 0.1 µM [1, 6] of 103%. It also gave a viability at 24 h, 0.1 µM [1, 7] of 269%, a viability at 24 h, 1 µM [1, 6] of 102% and a viability at 24 h, 1 µM [1, 7] of 218%. For the same compound, the viability at 24 h, 10 µM [1, 6] was 82%, the viability at 24 h, 10 µM [1, 7] was 147% and the viability at 24 h, 100 µM [1, 6] was 30%. The viability at 24 h, 100 µM [1, 7] was 69%, the p-Akt immunofluorescent labeling [2] was “robust, punctate, cytoplasmic p-Akt labeling” and the “Cells in G0/G1 phase” value ([3]; 0.01 µM) was 76%. The “Cells in G2/M phase” value ([3]; 0.01 µM) was 13%, the “Cells in S phase” value ([3]; 0.01 µM) was 11% and the “Cells in G0/G1 phase” value ([3]; 0.1 µM) was 76%. The “Cells in G2/M phase” value ([3]; 0.1 µM) was 12%, the “Cells in S phase” value ([3]; 0.1 µM) was 12% and the “Cells in G0/G1 phase” value ([3]; 1 µM) was 77%. The “Cells in G2/M phase” value ([3]; 1 µM) was 11%, the “Cells in S phase” value ([3]; 1 µM) was 12% and the “Cells in G0/G1 phase” value ([3]; 10 µM) was 76%. The “Cells in G2/M phase” value ([3]; 10 µM) was 11%, the “Cells in S phase” value ([3]; 10 µM) was 12% and the p-JNK level [4] was “stimulated increases”. It also gave an activity at 0.01 µM [5] of 945%, an activity at 0.1 µM ([5]; 0.1 µM) of 826% and an activity at 1 µM ([5]; 1 µM) of 887%. The activity at 10 µM [5] was 766%.
COc1ccc2[nH]c(-c3nc4ccccc4[nH]3)cc2c1 [SY-LB-57] gave a viability at 24 h, 0.01 µM [1, 6] of 120%, a viability at 24 h, 0.01 µM [1, 7] of 384% and a viability at 24 h, 0.1 µM [1, 6] of 107%. The viability at 24 h, 0.1 µM [1, 7] was 380%, the viability at 24 h, 1 µM [1, 6] was 111% and the viability at 24 h, 1 µM [1, 7] was 321%. The viability at 24 h, 10 µM [1, 6] was 111%, the viability at 24 h, 10 µM [1, 7] was 289% and the p-Akt immunofluorescent labeling [2] was “robust, punctate, cytoplasmic p-Akt labeling”. For the same compound, the “Cells in G0/G1 phase” value ([3]; 0.01 µM) was 76%, the “Cells in G2/M phase” value ([3]; 0.01 µM) was 13% and the “Cells in S phase” value ([3]; 0.01 µM) was 13%. The “Cells in G0/G1 phase” value ([3]; 0.1 µM) was 76%, the “Cells in G2/M phase” value ([3]; 0.1 µM) was 11% and the “Cells in S phase” value ([3]; 0.1 µM) was 14%. The “Cells in G0/G1 phase” value ([3]; 1 µM) was 77%, the “Cells in G2/M phase” value ([3]; 1 µM) was 11% and the “Cells in S phase” value ([3]; 1 µM) was 12%. For the same compound, the “Cells in G0/G1 phase” value ([3]; 10 µM) was 79%, the “Cells in G2/M phase” value ([3]; 10 µM) was 10% and the “Cells in S phase” value ([3]; 10 µM) was 13%. For the same compound, the p-JNK level [4] was “stimulated increases”, the activity at 0.01 µM [5] was 827% and the activity at 10 µM [5] was 995%.
